Key:
[1] = in the same or very close concentration range as the anti-angiogenic activity; cited from earlier work
Experimental: In our experiments, the effects of cyclo[DKP-RGD] 1 on HUVEC activity were tested in resting conditions as well as in the presence of a culture medium enriched with growth factors known to promote angiogenesis such as VEGF, EGF, IGF-I and FGF2 or after addition of the pro-inflammatory chemokine IL-8, which has a key role in the regulation of pathological angiogenesis. According to our results, cyclo[DKP-RGD]

[2] = test system: β5 integrin subunit mRNA in HUVEC; assay: Real time PCR, mRNA of integrin subunit β5; format: cell-based, human; settings: 1 μM, 5 h, mean ± SD of 3 experiments; for β5 mRNA, 2^-Δct ×10^2: GAPDH housekeeping
Experimental: (§1) Cells were treated for 5 h in the presence or absence of 1 μM cyclo[DKP-RGD] 1 in different growth conditions, as previously described. At the end of the treatment, RNA extraction was performed using the Qiazol lysis reagent. Primers were designed by using the “Primer3 input” software (http://frodo.wi.mit.edu/cgi-bin/primer3/primer3.cgi/primer3_www.cgi) and the specificity of each primer was controlled by the BLAST software (http://blast.ncbi.nlm.nih.gov) (Table 1). Real time PCR was performed as previously reported At the end of the reaction, a melting curve analysis was carried out to check for the presence of primer-dimers. Comparison of the expression of each gene was determined by using GAPDH as housekeeping gene. Each run was analyzed in duplicate and data are finally expressed as 2^-Δct.

HUVEC [3] = assay: Angiogenesis assay, network formation on Matrigel; format: cell-based, human; settings: 5 h
Experimental: To assess angiogenic activity, HUVEC 2.5×10^4 cells were seeded in a 24-well plate coated with 100 μl/well of Matrigel previously polymerized for 1 h at 37°C. […] 1 under either resting or stimulated conditions. In some experiments IL-8 (10 nM) was used as pro-angiogenic stimulus. Network formation was evaluated by phase‒contrast microscopy using a fluorescence microscope (Axiovert 40CFL, Carl Zeiss S.p.A. Milan, Italy). Network formation was finally quantified in terms of mean number of loops per field as topological parameters and the total length of the branches. For the purpose of the analysis, loops were defined as any complete ring formed by HUVEC, while open ramifications were considered as branches. The total branch length (pixels) and the number of loops were quantified using the ImageJ image analysis software (http://rsbweb.nih.gov/ij/).

[4] = test system: ovarian carcinoma IGROV-1; settings: cited from earlier work
ovarian carcinoma SKOV3 = settings: cited from earlier work
HUVEC [5] = assay: Cell migration, Boyden chamber assay; format: cell-based, human; settings: for effect on spontaneous migration / effect on stimulated migration: 5 h at 37°C; for effect on stimulated migration: VEGF, EGF, IGF-I and FGF2 in bottom chamber
Experimental: Cell migration was measured by means of a Boyden chamber assay. Briefly, 1×10^5 HUVEC were seeded in the top well of the Boyden chamber, cyclo[DKP-RGD] 1 was added in the bottom or in the top compartment, and a 3 μm-pore cellulose nitrate filter was placed between the two compartments. Stimulated migration was assessed by putting VEGF, EGF, IGF-I, and FGF2 in the bottom chamber. After an incubation period of 5 h at 37°C, the filter was recovered, dehydrated, fixed, and finally stained with hematoxylin. Migration into the filter was quantified by measuring the distance (in μm) from the surface of the filter to the leading front of cells using an optical microscope (Axiolab, Carl Zeiss S.p.A. Milan, Italy).

HUVEC [6] = assay: Cell viability by flow cytometry, annexin V/PI staining; settings: 24 h, mean ± SD, n = 4, P > 0.05 vs control
[7] = test system: β3 integrin subunit mRNA in HUVEC; assay: Real time PCR, mRNA of integrin subunit β3; format: cell-based, human; settings: 1 μM, 5 h, mean ± SD of 3 experiments; for β3 mRNA, 2^-Δct ×10^2: GAPDH housekeeping
Experimental: as §1

HUVEC [8] = assay: Proliferation assay, ELISA of BrdU incorporation; format: cell-based, human; settings: 24 h, data not shown
Experimental: To assess HUVEC proliferation, 1×10^4 cells were seeded in duplicate in a 96-well plate and cultured for 24 h without or with cyclo[DKP-RGD] 1 at different concentrations. Proliferation was then measured by a colorimetric immunoassay, based on the ELISA measurement of bromodeoxyuridine (BrdU) incorporation during DNA synthesis. The absorbance (ABS) of the samples was determined by means of a spectrophotometer (Model 680, Bio-Rad Laboratories, Hercules, CA, USA) with wavelength set at 450 nm, and finally expressed as the difference between BrdU positive and negative samples, expressed as Optical Density (O.D.).

[9] = test system: Akt phosphorylation in HUVEC; assay: Western blot analysis of Akt phosphorylation; format: cell-based, human; settings: 5 h
Experimental: Cells grown in 60-mm dishes were treated for 5 h with 1 μM cyclo[DKP-RGD] 1. The cells were then rinsed twice in ice-cold PBS and 200 μl of the cell lysis buffer (composition: 50 mM Tris–HCl pH 7.4, 1% v/v NP40, 0.25% w/v sodium deoxycholate, 1 mM phenylmethylsulphonyl-fluoride, 1 mM Na3VO4, 1 mM EDTA, 30 mM sodium pyrophosphate, 1 mM NaF, 1 mg/ml leupeptin, 1 mg/ml pepstatin A, 1 mg/ml aprotinin and 1 mg/ml microcystin) was added to the dishes. After scraping, cells were sonicated for 10 s, centrifuged at 12000 g for 5 min at 4°C and the amount of proteins in the supernatant was measured using the BCA protein assay. For western blot analysis, 20 μg of proteins were separated by 10% SDS–PAGE at 150 V for 2 h and blotted onto […] nitrocellulose membranes at 90 mA for 16 h. The membranes were first blocked for 2 h in TRIS buffered saline solution (TBST, composition: TRIS 10 mM, NaCl 150 mM, 0.1% Tween 20) plus 5% low fat dry milk (TBSTM) and then incubated with the appropriate antibody diluted 1:1000 in TBSTM, for 16 h at 4°C under gentle agitation. The membranes were rinsed three times in TBST and then incubated for 2 h at 21°C with the secondary antibody diluted 1:10000 in TBSTM. Membranes were then rinsed three times in TBST and luminescence was detected by using the appropriate kit, and densitometric analysis was performed as previously reported.

[10] = test system: human pancreatic carcinoma MIA-PaCa2; settings: cited from earlier work
αvβ5 integrin = settings: read-out: IC50, inhibition of vitronectin binding to αvβ5 integrin; cited from earlier work
From the text: (§2) HUVEC represent a valid in vitro model which provides seminal insights into the cellular and molecular events leading to neovascularization in response to inflammation and hypoxia in cancer, ischemic events, and in embryogenesis. As anticipated in the introduction, integrins are key actors in angiogenesis and vascular homeostasis, acting as promoters of endothelial cell-matrix interactions. It has been recognized that pharmacological inhibition of the αvβ3 subtype suppresses angiogenesis in many experimental models and αvβ3 antagonists (i.e. antibodies, peptides and peptidomimeti ...

αvβ3 integrin = settings: read-out: IC50, inhibition of vitronectin binding to αvβ3 integrin; cited from earlier work
From the text: as §2

[11] = test system: αv integrin subunit mRNA in HUVEC; assay: Real time PCR, mRNA of integrin subunit αv; format: cell-based, human; settings: 1 μM, 5 h, mean ± SD of 3 experiments; for αv mRNA, 2^-Δct ×10^2: GAPDH housekeeping
Experimental: as §1

human osteosarcoma U2-OS = settings: cited from earlier work
[12] = test system: human pancreatic carcinoma PANC-1; settings: cited from earlier work
HUVEC [13] = test system: HUVEC

Substance: cyclo-[Arg-Gly-Asp-D-Phe-N(Me)-Val] (head to tail) [cilengitide]
- cytotoxic activity [1]: exhibit cytotoxic activity

Substance: cyclo[DKP-RGD] [cyclo[DKP-RGD] 1]
- β5 mRNA, 2^-Δct ×10^2 ([2]; basal conditions): 1.52 ± 1.34
- β5 mRNA, Ratio vs Control ([2]; basal conditions): 1.08 ± 0.07
- β5 mRNA, 2^-Δct ×10^2 ([2]; with VEGF, EGF, IGF, and FGF): 1.31 ± 1.13
- β5 mRNA, Ratio vs Control ([2]; with VEGF, EGF, IGF, and FGF): 1.34 ± 0.46
- effect on angiogenesis induced by IL-8 (HUVEC [3]; IL-8 10 nM, P < 0.01 vs control): significantly and profoundly decreased
- effect on angiogenesis (network formation: loops, branch length) (HUVEC [3]; basal conditions): did not significantly affect
- effect on angiogenesis induced by VEGF, EGF, IGF-I, and FGF2 (HUVEC [3]; stimulated conditions, P < 0.01 vs control): significantly and profoundly decreased
- cytotoxic effects [4]: lack of cytotoxic effects
- cytotoxic effects (ovarian carcinoma SKOV3): lack of cytotoxic effects
- concentration of the peak of the bell-shaped effect on migration (HUVEC [5]; Boyden chamber, not observed in the angiogenesis assay): about 1×10^−9 M
- effect on spontaneous migration (HUVEC [5]; compound in bottom chamber): increased
- effect on stimulated migration (HUVEC [5]; compound in bottom chamber): increased
- effect on spontaneous migration (HUVEC [5]; compound in top chamber together with cells): increased
- effect on stimulated migration (HUVEC [5]; compound in top chamber): decreased
- viable cells (ANX-/PI-) (HUVEC [6]; basal conditions, 1×10^−6 M): 85.4 ± 3.4%
- viable cells (ANX-/PI-) (HUVEC [6]; with VEGF, EGF, IGF-I and FGF2, 1×10^−6 M): 86.8 ± 9.2%
- β3 mRNA, 2^-Δct ×10^2 ([7]; basal conditions): 0.91 ± 0.76
- β3 mRNA, Ratio vs Control ([7]; basal conditions): 1.08 ± 0.27
- β3 mRNA, 2^-Δct ×10^2 ([7]; with VEGF, EGF, IGF, and FGF): 1.41 ± 1.07
- β3 mRNA, Ratio vs Control ([7]; with VEGF, EGF, IGF, and FGF): 1.43 ± 0.35
- effect on basal proliferation (BrdU incorporation) (HUVEC [8]; basal conditions, up to 1×10^−5 M): did not significantly affect
- effect on stimulated proliferation (BrdU incorporation) (HUVEC [8]; with VEGF, EGF, IGF-I and FGF2, up to 1×10^−5 M): did not significantly affect
- phosphorylated Akt, % of control ([9]; basal conditions, 1×10^−6 M, n = 3, P = 0.001): 53.2 ± 7.9 % of control
- phosphorylated Akt ([9]; basal conditions, 1×10^−6 M, n = 3, P = 0.001, control 16241.7 ± 1763.3): 8702.7 ± 2008.7 optical density arbitrary units
- phosphorylated Akt ([9]; with VEGF, EGF, IGF-I, and FGF2, 1×10^−6 M, n = 3, P = 0.735, control 15406.0 ± 1218.8): 15174.7 ± 663.9 optical density arbitrary units
- cytotoxic effects [10]: lack of cytotoxic effects
- IC50 (αvβ5 integrin): 149 ± 25 nM
- IC50 (αvβ3 integrin): 4.5 ± 1.1 nM
- αv mRNA, 2^-Δct ×10^2 ([11]; basal conditions): 6.59 ± 5.24
- αv mRNA, Ratio vs Control ([11]; basal conditions): 1.32 ± 0.57
- αv mRNA, 2^-Δct ×10^2 ([11]; with VEGF, EGF, IGF, and FGF): 15.09 ± 10.66
- αv mRNA, Ratio vs Control ([11]; with VEGF, EGF, IGF, and FGF): 1.28 ± 0.42
- cytotoxic effects (human osteosarcoma U2-OS): lack of cytotoxic effects
- cytotoxic effects [12]: lack of cytotoxic effects
- effect on percentage of viable, early apoptotic, late apoptotic/necrotic or necrotic cells (HUVEC [13]): did not affect

Source: publication PMC4105520, “Effects of a novel cyclic RGD peptidomimetic on cell proliferation, migration and angiogenic activity in human endothelial cells” (Vascular Cell, 2014)
